*1 amine or outer side, *2 acyl side, *3 side chain or, on linkers, in order; H or OH if unused. Where a SMILES comes first, the peptide text is derived from it. Bridges are numbered along the chain shown (N, C = ends). Side-chain parts run from the residue outwards. [ ]: non-standard residue; d: D form. The star is where a group is joined. C20 diacid = O=C(O)CCCCCCCCCCCCCCCCCCC(=O)*; γGlu = O=C(O)[C@H](CCC(=O)[*:2])N[*:1]; AEEA = NCCOCCOCC(=O)O; Aib = CC(C)(N)C(=O)O
Legend:
[1] = target: T1, human GLP-1 receptor (GLP-1R) (Homo sapiens, UniProt P43220); experiment: cAMP accumulation assay, CHO-K1 cells stably expressing human GLP-1R; assay type: cell-based; settings: cAMP accumulation, mean pEC50, Table 10
T1 construct: expressed in transfected cells
T1 sequence (P43220 24-463): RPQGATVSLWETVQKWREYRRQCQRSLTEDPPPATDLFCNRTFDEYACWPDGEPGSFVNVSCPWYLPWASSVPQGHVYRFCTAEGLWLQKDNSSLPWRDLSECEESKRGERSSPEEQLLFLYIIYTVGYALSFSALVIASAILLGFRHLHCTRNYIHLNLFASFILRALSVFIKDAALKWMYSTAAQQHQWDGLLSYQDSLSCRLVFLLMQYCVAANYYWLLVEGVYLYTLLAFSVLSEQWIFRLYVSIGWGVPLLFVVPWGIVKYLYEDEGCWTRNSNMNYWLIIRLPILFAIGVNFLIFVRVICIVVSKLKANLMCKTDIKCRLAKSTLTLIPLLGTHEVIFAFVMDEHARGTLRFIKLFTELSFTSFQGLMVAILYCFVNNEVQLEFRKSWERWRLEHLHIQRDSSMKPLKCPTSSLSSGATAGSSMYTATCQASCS

[2] = target: T2, human Glucagon receptor (GCGR) (Homo sapiens, UniProt P47871); experiment: cAMP accumulation assay, CHO-K1 cells expressing human GCGR; assay type: cell-based; settings: mean pEC50, Table 10
T2 construct: A cDNA fragment encoding the full-length open reading frame of the human GCGR; expressed in transfected cells; host or cells: CHO-K1, pcDNA3.1+, Lipofectamine 2000
T2 sequence (P47871 26-477): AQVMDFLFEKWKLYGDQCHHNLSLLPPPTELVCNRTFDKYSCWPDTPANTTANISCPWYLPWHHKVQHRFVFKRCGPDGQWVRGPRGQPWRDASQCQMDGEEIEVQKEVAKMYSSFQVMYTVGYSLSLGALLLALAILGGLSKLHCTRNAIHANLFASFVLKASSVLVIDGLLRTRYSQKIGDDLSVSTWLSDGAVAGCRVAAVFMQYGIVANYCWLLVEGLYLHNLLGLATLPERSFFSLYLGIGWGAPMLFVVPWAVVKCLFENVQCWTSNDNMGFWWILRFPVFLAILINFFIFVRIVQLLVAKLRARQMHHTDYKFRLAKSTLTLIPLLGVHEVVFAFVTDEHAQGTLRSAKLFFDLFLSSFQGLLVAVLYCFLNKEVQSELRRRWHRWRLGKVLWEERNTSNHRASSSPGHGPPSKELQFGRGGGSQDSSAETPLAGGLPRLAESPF

SMILES | EC50 [1] | EC50 [2]
CC(C)C[C@H](NC(=O)[C@H](Cc1ccc(O)cc1)NC(=O)[C@H](CCCCN)NC(=O)[C@H](CO)NC(=O)[C@H](Cc1ccc(O)cc1)NC(=O)[C@H](CC(=O)O)NC(=O)[C@H](CO)NC(=O)[C@@H](NC(=O)[C@H](Cc1ccccc1)NC(=O)[C@@H](NC(=O)CNC(=O)[C@H](Cc1c[nH]cn1)NC(=O)[C@H](CO)NC(=O)[C@@H](N)Cc1ccc(O)cc1)[C@@H](C)O)[C@@H](C)O)C(=O)N[C@@H](CC(=O)O)C(=O)N[C@@H](CCCCNC(=O)CC[C@H](NC(=O)CC[C@H](NC(=O)COCCOCCNC(=O)CCCCCCCCCCCCCCCCCCC(=O)O)C(=O)O)C(=O)O)C(=O)N[C@@H](CCCCN)C(=O)N[C@@H](Cc1ccc(O)cc1)C(=O)N[C@@H](C)C(=O)N[C@@H](CCC(=O)O)C(=O)N[C@@H](CCC(=O)O)C(=O)N[C@@H](Cc1ccccc1)C(=O)N[C@H](C(=O)NC(C)(C)C(=O)N[C@@H](Cc1c[nH]c2ccccc12)C(=O)N[C@@H](CC(C)C)C(=O)N[C@@H](CCC(=O)O)C(=O)N[C@@H](CO)C(=O)N[C@@H](CCC(=O)O)C(=O)N1CCC[C@H]1C(=O)N[C@@H](CO)C(=O)N[C@@H](CO)C(=O)NCC(=O)N[C@@H](C)C(=O)N1CCC[C@H]1C(=O)N1CCC[C@H]1C(=O)N1CCC[C@H]1C(=O)N[C@@H](CO)C(=O)O)C(C)C [Compound A23] (H-YSHGTFTSDYSKYLDK([γGlu-γGlu-AEEA-C20 diacid])KYAEEFV[Aib]WLESEPSSGAPPPS-OH) | > 1000 pM | 3.16 pM
CC(C)C[C@H](NC(=O)[C@H](Cc1ccc(O)cc1)NC(=O)[C@H](CCCCN)NC(=O)[C@H](CO)NC(=O)[C@H](Cc1ccc(O)cc1)NC(=O)[C@H](CC(=O)O)NC(=O)[C@H](CO)NC(=O)[C@@H](NC(=O)[C@H](Cc1ccccc1)NC(=O)[C@@H](NC(=O)CNC(=O)[C@H](Cc1c[nH]cn1)NC(=O)[C@H](CO)NC(=O)[C@@H](N)Cc1ccc(O)cc1)[C@@H](C)O)[C@@H](C)O)C(=O)N[C@@H](CC(=O)O)C(=O)N[C@@H](CCCCNC(=O)CC[C@H](NC(=O)CC[C@H](NC(=O)COCCOCCNC(=O)CCCCCCCCCCCCCCCCCCC(=O)O)C(=O)O)C(=O)O)C(=O)N[C@@H](CCCCN)C(=O)N[C@@H](Cc1ccc(O)cc1)C(=O)N[C@@H](C)C(=O)N[C@H]1CCC(=O)NCCCC[C@@H](C(=O)N[C@@H](Cc2c[nH]c3ccccc23)C(=O)N[C@@H](CC(C)C)C(=O)N[C@@H](CCC(=O)O)C(=O)N[C@@H](CCC(=O)O)C(=O)N[C@@H](CCC(=O)O)C(=O)N2CCC[C@H]2C(=O)N[C@@H](CO)C(=O)N[C@@H](CO)C(=O)NCC(=O)N[C@@H](C)C(=O)N2CCC[C@H]2C(=O)N2CCC[C@H]2C(=O)N2CCC[C@H]2C(=O)N[C@@H](CO)C(=O)O)NC(=O)[C@H](C(C)C)NC(=O)[C@H](Cc2ccccc2)NC(=O)[C@H](CCCCN)NC1=O [Compound A25] (H-YSHGTFTSDYSKYLDK([γGlu-γGlu-AEEA-C20 diacid])KYAEKFVKWLEEEPSSGAPPPS-OH; lactam 20-24) | > 1000 pM | 1.26 pM

Source: patent US20240228572A1 (i2o Therapeutics, Inc., priority 2020, published 2024)
